Experimental data reported in PubChem BioAssay AID192 (DTP/NCI, 2004).
“And” between values parts separate entries of the source, which are not always exact repeats. Equal entries are not always repeated. Inconclusive results and toxic doses are left out.

Test system: BDF1 mice, B16 melanoma ip, median survival T/C
Assay: NCI In Vivo Anticancer Drug Screen. Data for tumor model B16 Melanoma (intraperitoneal) in B6D2F1 (BDF1) mice
Settings: endpoint: median survival time, higher = longer survival
Summary of the method: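 In this screen, activity was judged from survival or tumor size in treated versus vehicle-treated tumor-bearing mice, reported as T/C.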

[1] = dose: 100.0 mg/kg/injection, schedule: Q04DX003 (ip), vehicle: Klucel (hydroxypropylcellulose) (HPC)
[2] = dose: 200.0 mg/kg/injection, schedule: Q04DX003 (ip), vehicle: Klucel (hydroxypropylcellulose) (HPC)
[3] = dose: 400.0 mg/kg/injection, schedule: Q04DX003 (ip), vehicle: Klucel (hydroxypropylcellulose) (HPC)
[4] = dose: 6.25 mg/kg/injection, schedule: Q01DX009 (ip), vehicle: saline with Tween-80
[5] = dose: 12.5 mg/kg/injection, schedule: Q01DX009 (ip), vehicle: saline with Tween-80
[6] = dose: 25.0 mg/kg/injection, schedule: Q01DX009 (ip), vehicle: saline with Tween-80
[7] = dose: 50.0 mg/kg/injection, schedule: Q01DX009 (ip), vehicle: Klucel (hydroxypropylcellulose) (HPC)
[8] = dose: 50.0 mg/kg/injection, schedule: Q04DX003 (ip), vehicle: Klucel (hydroxypropylcellulose) (HPC)
[9] = dose: 100.0 mg/kg/injection, schedule: Q01DX009 (ip), vehicle: saline with Tween-80
[10] = dose: 25.0 mg/kg/injection, schedule: Q01DX009 (ip), vehicle: Klucel (hydroxypropylcellulose) (HPC)
[11] = dose: 100.0 mg/kg/injection, schedule: Q01DX009 (ip), vehicle: Klucel (hydroxypropylcellulose) (HPC)
[12] = dose: 200.0 mg/kg/injection, schedule: Q01DX009 (ip), vehicle: Klucel (hydroxypropylcellulose) (HPC)
[13] = dose: 400.0 mg/kg/injection, schedule: Q01DX009 (ip), vehicle: Klucel (hydroxypropylcellulose) (HPC)
[14] = dose: 50.0 mg/kg/injection, schedule: Q01DX009 (ip), vehicle: saline with Tween-80
[15] = dose: 50.0 mg/kg/injection, schedule: Q01DX009 (ip), vehicle: saline
[16] = dose: 100.0 mg/kg/injection, schedule: Q01DX009 (ip), vehicle: saline
[17] = dose: 200.0 mg/kg/injection, schedule: Q01DX009 (ip), vehicle: saline with Tween-80

In the case of `Cn1c(CCCC(=O)O)nc2cc(N(CCCl)CCCl)ccc21`, the T/C (dose: 1.0 mg/kg/injection, schedule: Q01DX009 (ip), vehicle: saline) was 115 % of control, the T/C (dose: 2.0 mg/kg/injection, schedule: Q01DX009 (ip), vehicle: saline) was 94 % of control and the T/C (dose: 2.5 mg/kg/injection, schedule: Q01DX009 (ip), vehicle: saline) was 157 % of control. The T/C (dose: 4.0 mg/kg/injection, schedule: Q01DX009 (ip), vehicle: saline) was 103 % of control, the T/C (dose: 5.0 mg/kg/injection, schedule: Q01DX009 (ip), vehicle: saline) was 152 % of control and the T/C (dose: 6.0 mg/kg/injection, schedule: Q01DX009 (ip), vehicle: saline) was 101 % of control. The T/C (dose: 8.0 mg/kg/injection, schedule: Q01DX009 (ip), vehicle: saline) was 159 % of control, the T/C (dose: 10.0 mg/kg/injection, schedule: Q01DX009 (ip), vehicle: saline) was 157 % of control and 186 % of control and the T/C (dose: 12.0 mg/kg/injection, schedule: Q01DX009 (ip), vehicle: saline) was 115 % of control. The T/C (dose: 20.0 mg/kg/injection, schedule: Q01DX009 (ip), vehicle: saline) was 89 % of control.
For `Cc1ccc(-c2cc(-c3ccccc3)no2)cc1`, the T/C [1] was 94 % of control, the T/C [2] was 100 % of control and the T/C [3] was 94 % of control.
With `CCS(=O)(=O)Nc1cccc(Nc2c3cccc(C)c3nc3c(C)cccc23)c1OC` the T/C [4] was 185 % of control, the T/C [5] was 203 % of control and the T/C [6] was 87 % of control.
`COc1ccc(C(C#N)N2CCOCC2)cc1` (configuration not stated) was tested, and the T/C [7] was 89 % of control, the T/C [8] was 95 % of control and the T/C [1] was 97 % of control.
For `Nc1cc2c(c[n+](CCCCCCCC[n+]3cc4c5ccccc5c(N)cc4c4ccccc43)c3ccccc23)c2ccccc12`, the T/C (dose: 0.78 mg/kg/injection, schedule: Q01DX009 (ip), vehicle: distilled water + Tween-80) was 120 % of control, the T/C (dose: 1.25 mg/kg/injection, schedule: Q01DX009 (ip), vehicle: saline with Tween-80) was 118 % of control and the T/C (dose: 1.56 mg/kg/injection, schedule: Q04DX003 (ip), vehicle: distilled water + Tween-80) was 114 % of control. The T/C (dose: 2.5 mg/kg/injection, schedule: Q01DX009 (ip), vehicle: saline with Tween-80) was 123 % of control, the T/C (dose: 2.59 mg/kg/injection, schedule: Q01DX009 (ip), vehicle: distilled water + Tween-80) was 156 % of control and the T/C (dose: 3.12 mg/kg/injection, schedule: Q04DX003 (ip), vehicle: distilled water + Tween-80) was 108 % of control. The T/C (dose: 4.32 mg/kg/injection, schedule: Q01DX009 (ip), vehicle: distilled water + Tween-80) was 167 % of control, the T/C (dose: 6.25 mg/kg/injection, schedule: Q01DX009 (ip), vehicle: distilled water + Tween-80) was 162 % of control and the T/C (dose: 7.2 mg/kg/injection, schedule: Q01DX009 (ip), vehicle: distilled water + Tween-80) was 180 % of control. For the same compound, the T/C (dose: 10.0 mg/kg/injection, schedule: Q01DX009 (ip), vehicle: saline with Tween-80) was 166 % of control, the T/C (dose: 12.0 mg/kg/injection, schedule: Q01DX009 (ip), vehicle: distilled water + Tween-80) was 182 % of control and the T/C (dose: 12.5 mg/kg/injection, schedule: Q01DX009 (ip), vehicle: distilled water + Tween-80) was 88 % of control. For the same compound, the T/C (dose: 20.0 mg/kg/injection, schedule: Q01DX009 (ip), vehicle: saline with Tween-80) was 160 % of control and the T/C (dose: 25.0 mg/kg/injection, schedule: Q04DX003 (ip), vehicle: distilled water + Tween-80) was 106 % of control.
For `CC(C)CC(NC(=O)c1ccccc1)C(=O)O` (configuration not stated), the T/C [9] was 97 % of control.
For `O=C1CCC(N2C(=O)c3ccccc3C2=O)C(=O)N1` (configuration not stated), the T/C [10] was 100 % of control, the T/C (dose: 25.0 mg/kg/injection, schedule: Q04DX003 (ip), vehicle: Klucel (hydroxypropylcellulose) (HPC)) was 99 % of control and the T/C [7] was 102 % of control. For the same compound, the T/C [8] was 106 % of control, the T/C [11] was 94 % of control and the T/C [1] was 94 % of control. For the same compound, the T/C [12] was 100 % of control, the T/C [2] was 99 % of control and the T/C [13] was 102 % of control. For the same compound, the T/C [3] was 94 % of control.
With `C(=N\OCc1ccccc1)/c1ccccn1` the T/C [11] was 101 % of control, the T/C [12] was 101 % of control and the T/C [13] was 97 % of control.
`O=C(Nc1ccccc1C(F)(F)F)C(c1ccccc1)c1ccccc1` was tested, and the T/C [5] was 101 % of control, the T/C [6] was 98 % of control and the T/C [14] was 97 % of control.
In the case of `O=[N+]([O-])/C=C/C(Cl)(Cl)Cl`, the T/C (dose: 6.25 mg/kg/injection, schedule: Q01DX009 (ip), vehicle: Klucel (hydroxypropylcellulose) (HPC)) was 100 % of control and the T/C (dose: 12.5 mg/kg/injection, schedule: Q01DX009 (ip), vehicle: Klucel (hydroxypropylcellulose) (HPC)) was 96 % of control.
In the case of `CN(C)CCCC#N`, the T/C (dose: 25.0 mg/kg/injection, schedule: Q01DX009 (ip), vehicle: saline) was 100 % of control, the T/C [15] was 100 % of control and the T/C [16] was 100 % of control.
`NC(Cc1cc([N+](=O)[O-])ccc1CN(CCCl)CCCl)C(=O)O` (configuration not stated) was tested, and the T/C (dose: 1.0 mg/kg/injection, schedule: Q01DX009 (ip), vehicle: Klucel (hydroxypropylcellulose) (HPC)) was 178 % of control, the T/C (dose: 1.88 mg/kg/injection, schedule: Q04DX003 (ip), vehicle: Klucel (hydroxypropylcellulose) (HPC)) was 158 % of control and the T/C (dose: 2.0 mg/kg/injection, schedule: Q01DX009 (ip), vehicle: Klucel (hydroxypropylcellulose) (HPC)) was 193 % of control. The T/C (dose: 3.12 mg/kg/injection, schedule: Q01DX001 (ip), vehicle: Klucel (hydroxypropylcellulose) (HPC)) was 164 % of control, the T/C (dose: 3.78 mg/kg/injection, schedule: Q04DX003 (ip), vehicle: Klucel (hydroxypropylcellulose) (HPC)) was 173 % of control and the T/C (dose: 4.0 mg/kg/injection, schedule: Q01DX009 (ip), vehicle: Klucel (hydroxypropylcellulose) (HPC)) was 240 % of control. For the same compound, the T/C (dose: 6.25 mg/kg/injection, schedule: Q01DX001 (ip), vehicle: Klucel (hydroxypropylcellulose) (HPC)) was 170 % of control, the T/C (dose: 7.5 mg/kg/injection, schedule: Q04DX003 (ip), vehicle: Klucel (hydroxypropylcellulose) (HPC)) was 185 % of control and the T/C (dose: 8.0 mg/kg/injection, schedule: Q01DX009 (ip), vehicle: Klucel (hydroxypropylcellulose) (HPC)) was 261 % of control. For the same compound, the T/C (dose: 12.5 mg/kg/injection, schedule: Q01DX001 (ip), vehicle: Klucel (hydroxypropylcellulose) (HPC)) was 186 % of control and the T/C (dose: 15.0 mg/kg/injection, schedule: Q04DX003 (ip), vehicle: Klucel (hydroxypropylcellulose) (HPC)) was 164 % of control.
With `CN1CCN(c2ccc(Cl)cc2)CC1` the T/C [10] was 100 % of control and the T/C [7] was 100 % of control.
With `CNC(=O)Nc1ccc(Cl)cc1C` the T/C [10] was 95 % of control, the T/C [7] was 97 % of control and the T/C [11] was 92 % of control and 121 % of control.
`O=C(O)CCC(NC(=O)OCc1ccccc1)C(=O)OCc1ccccc1` (configuration not stated) was tested, and the T/C [7] was 86 % of control, the T/C [11] was 86 % of control and the T/C [12] was 96 % of control.
In the case of `O=C(Nc1ccc2c(c1)OCO2)O/N=C1\C(=O)Nc2ccccc21`, the T/C (dose: 16.5 mg/kg/injection, schedule: Q04DX003 (ip), vehicle: saline with Tween-80) was 100 % of control, the T/C [6] was 109 % of control and the T/C (dose: 25.0 mg/kg/injection, schedule: Q04DX003 (ip), vehicle: saline with Tween-80) was 100 % of control. For the same compound, the T/C (dose: 25.0 mg/kg/injection, schedule: Q04DX003 (ip), vehicle: saline) was 153 % of control, the T/C (dose: 37.5 mg/kg/injection, schedule: Q04DX003 (ip), vehicle: saline with Tween-80) was 95 % of control and the T/C [14] was 104 % of control. The T/C [9] was 100 % of control.
In the case of `Nc1ccn(C2OC(COC(=O)C34CC5CC(CC(C5)C3)C4)C(O)C2O)c(=O)n1` (configuration not stated), the T/C [4] was 115 % of control, the T/C [5] was 153 % of control and the T/C [6] was 155 % of control and 191 % of control.
`CCCCN(CC)C(=S)S[Te](SC(=S)N(CC)CCCC)(SC(=S)N(CC)CCCC)SC(=S)N(CC)CCCC` was tested, and the T/C [11] was 110 % of control and the T/C [13] was 100 % of control.
With `CCCCCCCCCCCCCCCC(=O)N(C(C)CCCN(CC)CC)C(C)CCCN(CC)CC` (configuration not stated) the T/C (dose: 3.13 mg/kg/injection, schedule: Q01DX009 (ip), vehicle: other) was 91 % of control and the T/C (dose: 12.5 mg/kg/injection, schedule: Q01DX009 (ip), vehicle: other) was 92 % of control.
In the case of `CCCOP(=S)(N1CC1)N1CC1`, the T/C [6] was 91 % of control, the T/C [14] was 99 % of control and the T/C [9] was 91 % of control. For the same compound, the T/C [17] was 103 % of control.
With `O=C(O)CCCSc1nc2ccccc2s1` the T/C [9] was 100 % of control and the T/C [17] was 95 % of control.
`COC(=O)c1ccc[n+](CC(=O)c2ccccc2)c1` was tested, and the T/C [15] was 95 % of control, the T/C [16] was 93 % of control and the T/C (dose: 200.0 mg/kg/injection, schedule: Q01DX009 (ip), vehicle: saline) was 99 % of control.
